Laboratory results as given in US12612410B2 (CHILDREN'S HOSPITAL MEDICAL CENTER, priority 2020, dated 2026).

What was measured:
FLT3 Autoinh. = target: T1, FLT3 Autoinh. (Homo sapiens, UniProt P36888); assay: DiscoverX KINOMEscan competition binding, FLT3 Autoinh.
T1 construct: host or cells: E. coli BL21-derived host (T7 phage) or HEK-293
T1 sequence (P36888 564-993 limits assumed): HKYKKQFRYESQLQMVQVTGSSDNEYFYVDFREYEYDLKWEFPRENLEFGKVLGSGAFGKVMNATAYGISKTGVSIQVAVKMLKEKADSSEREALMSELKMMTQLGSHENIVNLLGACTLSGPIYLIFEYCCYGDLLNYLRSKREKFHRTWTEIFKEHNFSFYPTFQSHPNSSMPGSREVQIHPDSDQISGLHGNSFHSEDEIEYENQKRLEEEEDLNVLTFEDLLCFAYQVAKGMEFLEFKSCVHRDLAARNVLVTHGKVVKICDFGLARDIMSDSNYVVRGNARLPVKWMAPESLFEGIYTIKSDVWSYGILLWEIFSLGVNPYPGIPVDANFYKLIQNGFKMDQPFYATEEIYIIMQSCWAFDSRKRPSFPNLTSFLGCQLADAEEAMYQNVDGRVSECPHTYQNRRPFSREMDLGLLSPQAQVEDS
Excerpt: (§1) Kinase binding data were obtained for various exemplary compounds prepared according to Examples 1-24 using the DiscoverX KINOMVIEscan® active site-directed competition binding site-directed assay protocol described below. […] As a result, the data report thermodynamic interaction affinities (Kd values), rather than IC50 values that are dependent on ATP concentrations. The assay uses a DNA-tagged version of the protein kinase, and an immobilized ligand bound to a solid support. Compounds that directly or indirectly prevent kinase binding to the immobilized ligand reduce the amount of kinase captured on the solid support, which is detected using an ultra-sensitive qPCR method. Affinity constants reported from the assay have been reported to be independent of the immobilized ligand used that is coupled to the solid support (See supplemental information in Fabian, M. A. et. al., (2005) Nat. Biotechnol. 23, 329-336; Wodicka, L. M. et. al., (2010) Chem. Biol. 17, 1241-1249.)
(§2) Kinase-tagged T7 phage strains were prepared in an E. coli host derived from the BL21 strain. E. coli were grown to log-phase and infected with T7 phage and incubated with shaking at 32° C. until lysis. The lysates were centrifuged and filtered to remove cell debris. The remaining kinases were produced in HEK-293 cells and subsequently tagged with DNA for qPCR detection. Streptavidin-coated magnetic beads were treated with biotinylated small molecule ligands for 30 minutes at room temperature to generate affinity resins for kinase assays. The liganded beads were blocked with excess biotin and washed with blocking buffer (SeaBlock (Pierce), 1% BSA, 0.05% Tween 20, 1 mM DTT) to remove unbound ligand and to reduce non-specific binding. Binding reactions were assembled by combining kinases, liganded affinity beads, and test compounds in 1× binding buffer (20% SeaBlock, 0.17×PBS, 0.05% Tween 20, 6 mM DTT). Test compounds were prepared as 111× stocks in 100% DMSO. Kds were determined using an 11-point 3-fold compound dilution series with three DMSO control points. All compounds for Kd measurements are distributed by acoustic transfer (non-contact dispensing) in 100% DMSO. The compounds were then diluted directly into the assays such that the final concentration of DMSO was 0.9%. All reactions were performed in polypropylene 384-well plates. Each was a final volume of 0.02 mL. The assay plates were incubated at room temperature with shaking for 1 hour and the affinity beads were washed with wash buffer (1×PBS, 0.05% Tween 20). The beads were then re-suspended in elution buffer (1×PBS, 0.05% Tween 20, 0.5 μM nonbiotinylated affinity ligand) and incubated at room temperature with shaking for 30 minutes. The kinase concentration in the eluates was measured by qPCR.
(§3) Binding constants (Kds) were calculated with a standard dose-response curve using the Hill equation. The Hill Slope was set to −1. Curves were fitted using a non-linear least square fit with the Levenberg-Marquardt algorithm.

FLT3 D835V = target: T2, FLT3 D835V (Homo sapiens, UniProt P36888, D835V); assay: DiscoverX KINOMEscan competition binding, FLT3 D835V
T2 construct: host or cells: E. coli BL21-derived host (T7 phage) or HEK-293
T2 sequence (P36888 27-993 D835V): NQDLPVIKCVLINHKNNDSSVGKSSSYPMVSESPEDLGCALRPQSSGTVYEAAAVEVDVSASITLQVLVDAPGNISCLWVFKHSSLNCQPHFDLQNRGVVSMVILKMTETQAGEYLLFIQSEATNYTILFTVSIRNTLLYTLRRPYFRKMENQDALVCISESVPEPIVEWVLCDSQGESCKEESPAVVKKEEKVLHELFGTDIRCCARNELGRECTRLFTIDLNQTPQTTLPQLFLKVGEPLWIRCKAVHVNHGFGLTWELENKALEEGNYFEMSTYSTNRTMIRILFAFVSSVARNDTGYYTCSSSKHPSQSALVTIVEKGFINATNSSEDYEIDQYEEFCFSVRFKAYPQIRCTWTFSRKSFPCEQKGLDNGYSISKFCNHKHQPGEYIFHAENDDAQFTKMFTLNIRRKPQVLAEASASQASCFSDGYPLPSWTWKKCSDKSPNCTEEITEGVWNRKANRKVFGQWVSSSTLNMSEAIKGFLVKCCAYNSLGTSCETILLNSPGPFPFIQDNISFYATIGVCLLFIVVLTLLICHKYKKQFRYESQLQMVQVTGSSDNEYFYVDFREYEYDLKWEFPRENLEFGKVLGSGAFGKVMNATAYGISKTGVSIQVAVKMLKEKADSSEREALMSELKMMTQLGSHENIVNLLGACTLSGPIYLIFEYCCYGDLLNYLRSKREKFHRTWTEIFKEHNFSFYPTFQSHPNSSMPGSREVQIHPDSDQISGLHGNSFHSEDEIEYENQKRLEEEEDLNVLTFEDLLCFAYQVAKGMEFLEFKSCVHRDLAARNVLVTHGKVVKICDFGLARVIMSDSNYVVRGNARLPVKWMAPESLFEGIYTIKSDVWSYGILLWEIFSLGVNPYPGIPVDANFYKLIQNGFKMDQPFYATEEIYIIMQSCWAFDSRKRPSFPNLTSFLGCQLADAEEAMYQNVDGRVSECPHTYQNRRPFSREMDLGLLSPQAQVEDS
Excerpt: as §1, §2, §3

Row | Compound | Kd (FLT3 Autoinh.) | Kd (FLT3 D835V)
1 | CC1(c2cn3c(-c4cccc(N[C@H]5CNC[C@@H]5F)n4)cnc3cn2)CC1 [Compound 1, N-((3S,4S)-4-fluoropyrrolidin-3-yl)-6-(6-(1-methylcyclopropyl)imidazo[1,2-a]pyrazin-3-yl)pyridin-2-amine] | 1 nM | 0.015 nM
2 | CC1(c2cn3c(-c4cccc(N[C@@H]5CCNC5)n4)cnc3cn2)CC1 [Compound 3, (R)-6-(6-(1-methylcyclopropyl)imidazo[1,2-a]pyrazin-3-yl)-N-(pyrrolidin-3-yl)pyridin-2-amine] | 1.4 nM | 0.023 nM
3 | CC1(c2cn3c(-c4cccc(N[C@H]5CNCC56CC6)n4)cnc3cn2)CC1 [Compound 5, (R)-N-(6-(6-(1-methylcyclopropyl)imidazo[1,2-a]pyrazin-3-yl)pyridin-2-yl)-5-azaspiro[2.4]heptan-7-amine] | 0.88 nM | 0.013 nM
4 | FC(F)(F)C1(c2cn3c(-c4cccc(N[C@@H]5CCNC5)n4)cnc3cn2)CC1 [Compound 10, (R)-N-(pyrrolidin-3-yl)-6-(6-(1-(trifluoromethyl)cyclopropyl)imidazo[1,2-a]pyrazin-3-yl)pyridin-2-amine] | 4.2 nM | 0.083 nM
5 | FC(F)c1cn2c(-c3cccc(N[C@H]4CNC[C@@H]4F)n3)cnc2cn1 [Compound 16, 6-(6-(difluoromethyl)imidazo[1,2-a]pyrazin-3-yl)-N-((3S,4S)-4-fluoropyrrolidin-3-yl)pyridin-2-amine] | 3 nM | 0.066 nM
6 | FC(F)c1cn2c(-c3cccc(N[C@H]4CNCC[C@@H]4F)n3)cnc2cn1 [Compound 25, 6-(6-(difluoromethyl)imidazo[1,2-a]pyrazin-3-yl)-N-((3S,4S)-4-fluoropiperidin-3-yl)pyridin-2-amine] | 3.6 nM | 0.036 nM
7 | CC(C)(O)c1cn2c(-c3cccc(N[C@@H]4CCCNC4)n3)cnc2cn1 [Compound 30, (R)-2-(3-(6-(piperidin-3-ylamino)pyridin-2-yl)imidazo[1,2-a]pyrazin-6-yl)propan-2-ol] | 22 nM | 0.36 nM
8 | CC(C)(O)c1cn2c(-c3cccc(N[C@H]4CNCC[C@@H]4F)n3)cnc2cn1 [Compound 31, 2-(3-(6-(((3S,4S)-4-fluoropiperidin-3-yl)amino)pyridin-2-yl)imidazo[1,2-a]pyrazin-6-yl)propan-2-ol] | 10 nM | 0.17 nM
9 | FC(F)(F)COc1cn2c(-c3cccc(N[C@@H]4CCNC4)n3)cnc2cn1 [Compound 38, (R)-N-(pyrrolidin-3-yl)-6-(6-(2,2,2-trifluoroethoxy)imidazo[1,2-a]pyrazin-3-yl)pyridin-2-amine] | 7.6 nM | 0.12 nM
10 | F[C@H]1CNC[C@@H]1Nc1cccc(-c2cnc3cnc(C4CC4)cn23)n1 [Compound 50, 6-(6-cyclopropylimidazo[1,2-a]pyrazin-3-yl)-N-((3S,4S)-4-fluoropyrrolidin-3-yl)pyridin-2-amine] | 1.9 nM | 0.015 nM
11 | Cn1cc(-c2cn3c(-c4cccc(N[C@H]5CNC[C@@H]5F)n4)cnc3cn2)cn1 [Compound 52, N-((3S,4S)-4-fluoropyrrolidin-3-yl)-6-(6-(1-methyl-1H-pyrazol-4-yl)imidazo[1,2-a]pyrazin-3-yl)pyridin-2-amine] | 1.8 nM | 0.011 nM
